Measurements published in PMC8273893 (Journal of Medicinal Chemistry, 2021).

Assays:
[1] = Parallel artificial membrane permeability assay; type: in vitro ADME; settings: 500 μM in donor, 20 h
Plasma stability = type: in vitro ADME; settings: 5 μM, 50% human plasma in PBS, 1 h, 37 °C

SMILES | PAMPA (% flux) [1] [% flux] | plasma stability (% remaining) (Plasma stability)
O=C(O)c1ccc(NCc2c(-c3c(Cl)cccc3C(F)(F)F)noc2-c2cc[nH]c2)cc1 [Compound 2, 4-(((3-(2-Chloro-6-(trifluoromethyl)phenyl)-5-(1H-pyrrol-3-yl)isoxazol-4-yl)methyl)amino) Benzoic Acid] | 36.1 | 79.1
O=C(O)c1ccc(OCc2c(-c3c(Cl)cccc3C(F)(F)F)noc2-c2cc[nH]c2)cc1 [Compound 3, 4-((3-(2-Chloro-6-(trifluoromethyl)phenyl)-5-(1H-pyrrol-3-yl)isoxazol-4-yl)methoxy) Benzoic Acid] | 40.9 | 74.2
O=C(O)c1ccc(OCc2c(-c3c(Cl)cccc3C(F)(F)F)noc2-c2cc[nH]c2)cc1F [Compound 9, 4-((3-(2-Chloro-6-(trifluoromethyl)phenyl)-5-(1H-pyrrol-3-yl)isoxazol-4-yl)methoxy)-2-fluorobenzoic Acid] | 37.3 | 97.1
O=C(O)c1ccc(OCc2c(-c3c(Cl)cccc3C(F)(F)F)noc2-c2cn[nH]c2)cc1 [Compound 11, 4-((3-(2-Chloro-6-(trifluoromethyl)phenyl)-5-(1H-pyrazol-4-yl)isoxazol-4-yl)methoxy) Benzoic Acid] | 23.0 | 100
O=C(O)c1ccc(/C=C/c2c(-c3c(Cl)cccc3C(F)(F)F)noc2-c2cc[nH]c2)cc1 [Compound 6, (E)-4-(2-(3-(2-Chloro-6-(trifluoromethyl)phenyl)-5-(1H-pyrrol-3-yl)isoxazol-4-yl)vinyl) Benzoic Acid] | 40.3 | 59.5
O=C(O)c1ccc(OCc2c(-c3c(Cl)cccc3C(F)(F)F)noc2-c2ccc[nH]2)cc1 [Compound 10, 4-((3-(2-Chloro-6-(trifluoromethyl)phenyl)-5-(1H-pyrrol-2-yl)isoxazol-4-yl)methoxy) Benzoic Acid] | 50.5 | 89.5
O=C(O)c1ccc(-c2nn(C(=O)c3c(Cl)cccc3C(F)(F)F)c3ccccc23)cc1 [Compound 1, reference compound] | 29.7 | 95.5
